Data as given in patent publication US20250368666A1, “INDAZOLE COMPOUNDS” (TYRA BIOSCIENCES, INC., priority 2022, published 2025).
pIC50: −log10 of the molar value.

Tests used:
FGFR1 = target: T1, FGFR1 (Homo sapiens, UniProt P11362); experiment: Kinase binding assay (kinase-tagged T7 phage, affinity beads, qPCR), Kd; settings: read-out: FGFR1 (Kd nM)
T1 construct: made in house; host or cells: E. coli (BL21-derived), T7 phage
Method in brief: (§1)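 T7 phage displaying each kinase, grown in a BL21-derived E. coli host at 32° C until lysis, competed with test compound for biotinylated ligand immobilised on streptavidin beads. Bead-bound kinase was eluted and quantified by qPCR. Kd came from an 11-point 3-fold dilution series fitted to the Hill equation with slope fixed at −1.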

FGFR3 = target: T2, FGFR3 (Homo sapiens, UniProt P22607); experiment: as above; settings: read-out: FGFR3 (Kd nM)
T2 construct: made in house; host or cells: E. coli (BL21-derived), T7 phage
T2 sequence (P22607 23-806): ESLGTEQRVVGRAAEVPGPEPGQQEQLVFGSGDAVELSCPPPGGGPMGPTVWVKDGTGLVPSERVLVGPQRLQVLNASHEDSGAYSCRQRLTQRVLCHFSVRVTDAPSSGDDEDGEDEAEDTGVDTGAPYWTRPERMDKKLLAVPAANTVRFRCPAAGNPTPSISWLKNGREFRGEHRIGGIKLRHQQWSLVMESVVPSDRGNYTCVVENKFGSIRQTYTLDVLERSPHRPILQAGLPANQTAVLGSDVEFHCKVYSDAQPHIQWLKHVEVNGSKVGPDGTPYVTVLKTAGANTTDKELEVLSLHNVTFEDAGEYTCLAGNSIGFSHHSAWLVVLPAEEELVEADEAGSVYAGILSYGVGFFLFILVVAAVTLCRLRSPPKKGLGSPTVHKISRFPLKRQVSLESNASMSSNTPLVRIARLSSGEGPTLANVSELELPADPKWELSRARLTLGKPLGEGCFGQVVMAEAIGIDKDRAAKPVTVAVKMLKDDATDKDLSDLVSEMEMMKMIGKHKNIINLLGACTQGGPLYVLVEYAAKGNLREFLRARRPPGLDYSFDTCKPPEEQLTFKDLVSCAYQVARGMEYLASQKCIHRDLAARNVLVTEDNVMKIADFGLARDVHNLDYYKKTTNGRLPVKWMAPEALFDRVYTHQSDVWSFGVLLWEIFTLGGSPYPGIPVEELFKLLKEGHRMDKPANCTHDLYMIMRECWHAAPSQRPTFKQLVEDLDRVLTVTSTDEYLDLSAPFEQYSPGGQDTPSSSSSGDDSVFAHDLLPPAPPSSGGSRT
Method in brief: as §1

[1] = system: KATO-III cell line (FGFR2 amplification); experiment: Cancer cell line cell viability assay (Cell Titer-Glo), 72 hr; assay type: cell-based; settings: Homo sapiens, KATO III
Method in brief: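 Following overnight attachment, each line receives compound in triplicate across nine 4-fold dilutions starting at 3 μM, with DMSO backfill for equal solvent. Luminescence after Cell Titer-Glo 2.0 addition gives percent viability versus DMSO control, fitted by 4-parameter logistic for IC50.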

[2] = system: RT112/84 cell line (FGFR3-fusion); experiment: as above; assay type: cell-based; settings: Homo sapiens, RT112/84, RT112/84 cell line (FGFR3-fusion)
Method in brief: (§2)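 RPMI1640/10% FBS for RT112/84 and MDA-MB-453; IMDM/20% FBS for KG-1; IMDM/10% FBS for HuH7. Cells plated overnight, dosed from 3 μM in 4-fold, 9-point series, incubated at 37° C, then lysed with Cell Titer-Glo 2.0; IC50 by sigmoidal fit.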

[3] = system: KG-1 cell line (FGFR 1-fusion); experiment: as above; assay type: cell-based; settings: Homo sapiens, KG-1, KG-1 cell line (FGFR1-fusion)
Method in brief: as §2

[4] = system: MDA-MB-453 cell line (FGFR4-Y367C); experiment: Cancer cell line cell viability assay (Cell Titer-Glo), 120 hr; assay type: cell-based; settings: Homo sapiens
Method in brief: as §2

T1 sequence (P11362 22-822): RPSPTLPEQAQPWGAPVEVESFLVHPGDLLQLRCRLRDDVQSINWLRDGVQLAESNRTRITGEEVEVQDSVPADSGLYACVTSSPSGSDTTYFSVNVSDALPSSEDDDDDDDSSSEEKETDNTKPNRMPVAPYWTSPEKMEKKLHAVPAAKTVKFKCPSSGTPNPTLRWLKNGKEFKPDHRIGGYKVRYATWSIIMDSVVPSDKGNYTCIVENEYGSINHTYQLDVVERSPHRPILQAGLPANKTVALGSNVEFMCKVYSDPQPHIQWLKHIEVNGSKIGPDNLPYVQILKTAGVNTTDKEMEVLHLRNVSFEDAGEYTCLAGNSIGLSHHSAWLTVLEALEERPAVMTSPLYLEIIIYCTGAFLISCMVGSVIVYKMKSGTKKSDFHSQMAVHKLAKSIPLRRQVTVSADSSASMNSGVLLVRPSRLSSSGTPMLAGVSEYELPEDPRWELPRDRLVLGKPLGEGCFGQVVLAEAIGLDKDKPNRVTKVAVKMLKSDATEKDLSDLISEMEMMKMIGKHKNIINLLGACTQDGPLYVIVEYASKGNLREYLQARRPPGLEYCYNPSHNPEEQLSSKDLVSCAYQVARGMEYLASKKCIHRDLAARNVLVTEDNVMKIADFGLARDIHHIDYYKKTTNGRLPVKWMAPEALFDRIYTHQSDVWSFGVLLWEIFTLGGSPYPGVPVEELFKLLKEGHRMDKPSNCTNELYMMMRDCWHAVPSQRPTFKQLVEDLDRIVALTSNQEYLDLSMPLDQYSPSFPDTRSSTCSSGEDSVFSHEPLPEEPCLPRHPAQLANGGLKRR

Structure (SMILES) | Kd (FGFR1) | Kd (FGFR3) | pIC50 [1] | pIC50 [2] | pIC50 [3] | pIC50 [4]
C[C@@H](Oc1ccc2[nH]nc(-c3cnc(N4CC(N)(C5CCC5)C4)c(F)c3)c2c1)c1c(Cl)cncc1Cl [Example 256, (R)-3-cyclobutyl-1-(5-(5-(1-(3,5-dichloropyridin-4-yl)ethoxy)-1H-indazol-3-yl)-3-fluoropyridin-2-yl)azetidin-3-amine] | 1 to 50 nM | 1 to 50 nM | 6.70 to 7.30 | 7.30 to 10.00 | 6.70 to 7.30 | 6.70 to 7.30
CC(C)CC1(N)CN(c2ncc(-c3n[nH]c4ccc(O[C@H](C)c5c(Cl)cncc5Cl)cc34)cc2F)C1 [Example 258, (R)-1-(5-(5-(1-(3,5-dichloropyridin-4-yl)ethoxy)-1H-indazol-3-yl)-3-fluoropyridin-2-yl)-3-isobutylazetidin-3-amine] | 1 to 50 nM | 1 to 50 nM | 6.70 to 7.30 | 7.30 to 10.00 | 6.00 to 6.70 | 6.00 to 6.70
C[C@@H](Oc1ccc2[nH]nc(-c3cnc(N4CC(C)(OCCN5CCCC5)C4)c(F)c3)c2c1)c1c(Cl)cncc1Cl [Example 261, (R)-5-(1-(3,5-dichloropyridin-4-yl)ethoxy)-3-(5-fluoro-6-(3-methyl-3-(2-(pyrrolidin-1-yl)ethoxy)azetidin-1-yl)pyridin-3-yl)-1H-indazole] | 1 to 50 nM | 1 to 50 nM | 7.30 to 10.00 | 7.30 to 10.00 | 6.70 to 7.30 | 6.70 to 7.30
C=CCC1(N)CN(c2ncc(-c3n[nH]c4ccc(O[C@H](C)c5c(Cl)cncc5Cl)cc34)cc2F)C1 [Example 264, (R)-3-ally1-1-(5-(5-(1-(3,5-dichloropyridin-4-yl)ethoxy)-1H-indazol-3-yl)-3-fluoropyridin-2-yl)azetidin-3-amine] | 1 to 50 nM | 1 to 50 nM | 6.70 to 7.30 | 7.30 to 10.00 | 6.70 to 7.30 | 6.70 to 7.30
C[C@@H](Oc1ccc2[nH]nc(-c3cnc(N4CC(N)(CC(C)(C)O)C4)c(F)c3)c2c1)c1c(Cl)cncc1Cl [Example 266, (R)-1-(3-amino-1-(5-(5-(1-(3,5-dichloropyridin-4-yl)ethoxy)-1H-indazol-3-yl)-3-fluoropyridin-2-yl)azetidin-3-yl)-2-methylpropan-2-ol] | 1 to 50 nM | 1 to 50 nM | 6.70 to 7.30 | 7.30 to 10.00 | 6.00 to 6.70 | < 6.00
C[C@@H](Oc1ccc2[nH]nc(-c3ccc(N4CC(N)(CCO)C4)nn3)c2c1)c1c(Cl)cncc1Cl [Example 267, (R)-2-(3-amino-1-(6-(5-(1-(3,5-dichloropyridin-4-yl)ethoxy)-1H-indazol-3-yl)pyridazin-3-yl)azetidin-3-yl)ethanol] | 1 to 50 nM | 1 to 50 nM | 6.70 to 7.30 | 7.30 to 10.00 | < 6.00 | 6.00 to 6.70
C[C@@H](Oc1ccc2[nH]nc(-c3ccc(N4CC(C)(OCCN5CCCC5)C4)nn3)c2c1)c1c(Cl)cncc1Cl [Example 269, (R)-5-(1-(3,5-dichloropyridin-4-yl)ethoxy)-3-(6-(3-methyl-3-(2-(pyrrolidin-1-yl)ethoxy)azetidin-1-yl)pyridazin-3-yl)-1H-indazole] | 1 to 50 nM | 1 to 50 nM | 7.30 to 10.00 | 7.30 to 10.00 | 6.70 to 7.30 | 6.00 to 6.70
COCCC1(N)CN(c2ncc(-c3n[nH]c4ccc(O[C@H](C)c5c(Cl)cncc5Cl)cc34)cc2F)C1 [Example 273, (R)-1-(5-(5-(1-(3,5-dichloropyridin-4-yl)ethoxy)-1H-indazol-3-yl)-3-fluoropyridin-2-yl)-3-(2-methoxy-ethyl)azetidin-3-amine] | 1 to 50 nM | 1 to 50 nM | 7.30 to 10.00 | 7.30 to 10.00 | 7.30 to 10.00 | 7.30 to 10.00
C=CCC1(N)CN(c2ccc(-c3n[nH]c4ccc(O[C@H](C)c5c(Cl)cncc5Cl)cc34)nn2)C1 [Example 274, (R)-3-allyl-1-(6-(5-(1-(3,5-dichloropyridin-4-yl)ethoxy)-1H-indazol-3-yl)pyridazin-3-yl)azetidin-3-amine] | 1 to 50 nM | 1 to 50 nM | 7.30 to 10.00 | 7.30 to 10.00 | 6.70 to 7.30 | 6.00 to 6.70
C[C@@H](Oc1ccc2[nH]nc(-c3ccc(N4CC(N)(Cc5ccnn5C)C4)nn3)c2c1)c1c(Cl)cncc1Cl [Example 281, (R)-1-(6-(5-(1-(3,5-dichloropyridin-4-yl)ethoxy)-1H-indazol-3-yl)pyridazin-3-yl)-3-((1-methyl-1H-pyrazol-5-yl)methyl)azetidin-3-amine] | 1 to 50 nM | 1 to 50 nM | 7.30 to 10.00 | 7.30 to 10.00 | 6.70 to 7.30 | 6.00 to 6.70

The next lines start with the values.

Kd (FGFR1) | Kd (FGFR3) | pIC50 [1] | pIC50 [2] | pIC50 [3] | pIC50 [4] | Structure (SMILES)
1 to 50 nM | 1 to 50 nM | 7.30 to 10.00 | 7.30 to 10.00 | 6.70 to 7.30 | 6.70 to 7.30 | C[C@@H](Oc1ccc2[nH]nc(-c3cnc(N4CC(CC#N)(N5CCCC5)C4)c(F)c3)c2c1)c1c(Cl)cncc1Cl [Example 251, (R)-2-(1-(5-(5-(1-(3,5-dichloropyridin-4-yl)ethoxy)-1H-indazol-3-yl)-3-fluoropyridin-2-yl)-3-(pyrrolidin-1-yl)azetidin-3-yl)acetonitrile]
1 to 50 nM | 1 to 50 nM | 7.30 to 10.00 | 7.30 to 10.00 | 6.70 to 7.30 | 6.70 to 7.30 | CC(C)C1(N)CN(c2ncc(-c3n[nH]c4ccc(O[C@H](C)c5c(Cl)cncc5Cl)cc34)cc2F)C1 [Example 255, (R)-1-(5-(5-(1-(3,5-dichloropyridin-4-yl)ethoxy)-1H-indazol-3-yl)-3-fluoropyridin-2-yl)-3-isopropylazetidin-3-amine]
1 to 50 nM | 1 to 50 nM | 7.30 to 10.00 | 7.30 to 10.00 | 6.70 to 7.30 | 7.30 to 10.00 | C[C@@H](Oc1ccc2[nH]nc(-c3cnc(N4CC(N)(CCO)C4)c(F)c3)c2c1)c1c(Cl)cncc1Cl [Example 259, (R)-2-(3-amino-1-(5-(5-(1-(3,5-dichloropyridin-4-yl)ethoxy)-1H-indazol-3-yl)-3-fluoropyridin-2-yl)azetidin-3-yl)ethanol]
1 to 50 nM | 1 to 50 nM | 6.70 to 7.30 | 7.30 to 10.00 | 6.70 to 7.30 | 7.30 to 10.00 | CCC1(N)CN(c2ncc(-c3n[nH]c4ccc(O[C@H](C)c5c(Cl)cncc5Cl)cc34)cc2F)C1 [Example 260, 1-[5-[5-[(1R)-1-(3,5-dichloro-4-pyridyl)ethoxy]-1H-indazol-3-yl]-3-fluoro-2-pyridyl]-3-ethyl-azetidin-3-amine]
1 to 50 nM | 1 to 50 nM | 6.70 to 7.30 | 7.30 to 10.00 | 6.70 to 7.30 | 6.00 to 6.70 | C[C@@H](Oc1ccc2[nH]nc(-c3cnc(N4CC(N)(CC5CC5)C4)c(F)c3)c2c1)c1c(Cl)cncc1Cl [Example 262, (R)-3-(cyclopropylmethyl)-1-(5-(5-(1-(3,5-dichloropyridin-4-yl)ethoxy)-1H-indazol-3-yl)-3-fluoropyridin-2-yl)azetidin-3-amine]
1 to 50 nM | 1 to 50 nM | 7.30 to 10.00 | 7.30 to 10.00 | 6.70 to 7.30 | 7.30 to 10.00 | C[C@@H](Oc1ccc2[nH]nc(-c3cnc(N4CC(N)(CCS(C)(=O)=O)C4)c(F)c3)c2c1)c1c(Cl)cncc1Cl [Example 270, (R)-1-(5-(5-(1-(3,5-dichloropyridin-4-yl)ethoxy)-1H-indazol-3-yl)-3-fluoropyridin-2-yl)-3-(2-(methylsulfonyl)ethyl)azetidin-3-amine]
1 to 50 nM | 1 to 50 nM | 6.70 to 7.30 | 7.30 to 10.00 | 6.00 to 6.70 | 7.30 to 10.00 | CC(C)=CCC1(N)CN(c2ncc(-c3n[nH]c4ccc(O[C@H](C)c5c(Cl)cncc5Cl)cc34)cc2F)C1 [Example 271, (R)-1-(5-(5-(1-(3,5-dichloropyridin-4-yl)ethoxy)-1H-indazol-3-yl)-3-fluoropyridin-2-yl)-3-(3-methylbut-2-en-1-yl)azetidin-3-amine]
1 to 50 nM | 1 to 50 nM | 6.70 to 7.30 | 7.30 to 10.00 | 6.70 to 7.30 | 6.00 to 6.70 | C[C@@H](Oc1ccc2[nH]nc(-c3ccc(N4CC(N)(CC5CC5)C4)nn3)c2c1)c1c(Cl)cncc1Cl [Example 272, (R)-3-(cyclopropylmethyl)-1-(6-(5-(1-(3,5-dichloropyridin-4-yl)ethoxy)-1H-indazol-3-yl)pyridazin-3-yl)azetidin-3-amine]
1 to 50 nM | 1 to 50 nM | 7.30 to 10.00 | 7.30 to 10.00 | 6.70 to 7.30 | 7.30 to 10.00 | C[C@@H](Oc1ccc2[nH]nc(-c3cnc(N4CC(N)(c5cnn(C)c5)C4)c(F)c3)c2c1)c1c(Cl)cncc1Cl [Example 277, (R)-1-(5-(5-(1-(3,5-dichloropyridin-4-yl)ethoxy)-1H-indazol-3-yl)-3-fluoropyridin-2-yl)-3-(1-methyl-1H-pyrazol-4-yl)azetidin-3-amine]
